Measured values from patent publication US9995734B2, “Human T cell line assay for evaluating the immunologic identity of glatiramer acetate preparations” (Mylan Inc., priority 2013, dated 2018).
Several values for one entry are separate records, joined by “and”; a condition that tells them apart may be missing. Identical values can stand only once.

How the values were obtained:
Type in all cases: cell-based, human
[1] = system: Donor 1 GMA Expanded T-Cell Lines (222-AG11, 222-AG12, 222-BA11, 222-BC11); experiment: ATP proliferation assay (CellTiter Glo), Donor 1 GMA expanded T-cell lines, incl. reactivity to non-canonical GA peptides; conditions: for Proliferation (luminescent ATP assay), Mean: T-cell line 222-AG12, autologous B-LCL
Summary of the method: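 GMA-expanded T-cell lines from Donor 1 restimulated with GMA (0–100 μg/mL), or with non-canonical GA peptides, COP and GMA (0–30 μg/mL; T cells 2×10^5 cells/mL). Mitomycin C-treated autologous PBMC or B-LCL served as APC. Proliferation read by CellTiter-Glo ATP luminescence after 3 days at 37° C.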

Donor 3 COP T-Cell Lines = experiment: ATP proliferation assay (CellTiter Glo), Donor 3 COP T-cell lines, incl. reactivity to non-canonical GA peptides; conditions: for Non-Canonical Peptide Non-Reactivity: proliferation <2 times no antigen control
Donor 4 COP T-Cell Lines = experiment: ATP proliferation assay (CellTiter Glo), Donor 4 COP T-cell lines, incl. reactivity to non-canonical GA peptides; conditions: for Non-Canonical Peptide Non-Reactivity: proliferation <2 times no antigen control; for Proliferation (luminescent ATP assay), Mean: T-cell line 205-1F4, Day 71, autologous B-LCL

poly (Glu-Lys-Tyr; 6:3:1) [GLT 631]
Non-Canonical Peptide Non-Reactivity ([1]; 222-AG12, proliferation <2 times no antigen control): GLT 631
Nonreactive T-Cell Line ([1]; Donor 1 GMA expanded lines, stimulation with the non-canonical GA peptide): 222-AG12 (Donor 1)
Proliferation (luminescent ATP assay), Mean ([1]; 1 ug/mL antigen): 3801 RLU
Proliferation (luminescent ATP assay), Mean ([1]; 10 ug/mL antigen): 4002 RLU
Proliferation (luminescent ATP assay), Mean ([1]; 30 ug/mL antigen): 5292 RLU
Non-Canonical Peptide Non-Reactivity (Donor 3 COP T-Cell Lines; 165-B6C): GLT 631
Non-Canonical Peptide Non-Reactivity (Donor 3 COP T-Cell Lines; 165-C4C): GLT 631
Non-Canonical Peptide Non-Reactivity (Donor 3 COP T-Cell Lines; 165-C7C): GLT 631
proliferation response to non-canonical peptides (Donor 3 COP T-Cell Lines; 165-E3C, separate experiment): did not react
Non-Canonical Peptide Non-Reactivity (Donor 3 COP T-Cell Lines; 165-F3C): GLT 631
Non-Canonical Peptide Non-Reactivity (Donor 3 COP T-Cell Lines; 165-F6C): GLT 631
Non-Canonical Peptide Non-Reactivity (Donor 3 COP T-Cell Lines; 165-U3C (so in the source)): GLT 631
Nonreactive T-Cell Line (Donor 3 COP T-Cell Lines; Donor 3 COP lines, stimulation with the non-canonical GA peptide): 165-B6C (Donor 3) and 165-C4C (Donor 3) and 165-C7C (Donor 3) and 165-E3C (Donor 3) and 165-F3C (Donor 3) and 165-F6C (Donor 3)
Proliferation (luminescent ATP assay), Mean (Donor 3 COP T-Cell Lines; T-cell line 165-C4C, 1 μg/mL antigen, Day 66 of culture, 0 μg/mL 1881): 2465
Proliferation (luminescent ATP assay), Mean (Donor 3 COP T-Cell Lines; T-cell line 165-C4C, 3 μg/mL antigen, Day 66 of culture, 0 μg/mL 1881): 2677
Proliferation (luminescent ATP assay), Mean (Donor 3 COP T-Cell Lines; T-cell line 165-C4C, 10 μg/mL antigen, Day 66 of culture, 0 μg/mL 1881): 2939
Proliferation (luminescent ATP assay), Mean (Donor 3 COP T-Cell Lines; T-cell line 165-C7C, 1.25 μg/mL antigen, autologous B-LCL): 273 RLU
Proliferation (luminescent ATP assay), Mean (Donor 3 COP T-Cell Lines; T-cell line 165-C7C, 2.5 μg/mL antigen, autologous B-LCL): 219 RLU
Proliferation (luminescent ATP assay), Mean (Donor 3 COP T-Cell Lines; T-cell line 165-C7C, 5 μg/mL antigen, autologous B-LCL): 273 RLU
Proliferation (luminescent ATP assay), Mean (Donor 3 COP T-Cell Lines; T-cell line 165-C7C, 10 μg/mL antigen, autologous B-LCL): 219 RLU
Proliferation (luminescent ATP assay), Mean (Donor 3 COP T-Cell Lines; T-cell line 165-F3C, 1 μg/mL antigen, Day 77 of culture, 0 μg/mL 1563): 2325
Proliferation (luminescent ATP assay), Mean (Donor 3 COP T-Cell Lines; T-cell line 165-F3C, 3 μg/mL antigen, Day 77 of culture, 0 μg/mL 1563): 2557
Proliferation (luminescent ATP assay), Mean (Donor 3 COP T-Cell Lines; T-cell line 165-F3C, 10 μg/mL antigen, Day 77 of culture, 0 μg/mL 1563): 2724
Proliferation (luminescent ATP assay), Mean (Donor 3 COP T-Cell Lines; T-cell line 165-F6C, 1.25 μg/mL antigen, Day 76 of culture, No Antigen value 517): 501
Proliferation (luminescent ATP assay), Mean (Donor 3 COP T-Cell Lines; T-cell line 165-F6C, 2.5 μg/mL antigen, Day 76 of culture, No Antigen value 517): 416
Proliferation (luminescent ATP assay), Mean (Donor 3 COP T-Cell Lines; T-cell line 165-F6C, 5 μg/mL antigen, Day 76 of culture, No Antigen value 517): 482
Proliferation (luminescent ATP assay), Mean (Donor 3 COP T-Cell Lines; T-cell line 165-F6C, 10 μg/mL antigen, Day 76 of culture, No Antigen value 517): 474
Non-Canonical Peptide Non-Reactivity (Donor 4 COP T-Cell Lines; 205-1B4): GLT 631
Non-Canonical Peptide Non-Reactivity (Donor 4 COP T-Cell Lines; 205-1C4): GLT 631
Non-Canonical Peptide Non-Reactivity (Donor 4 COP T-Cell Lines; 205-1F4): GLT 631
Non-Canonical Peptide Non-Reactivity (Donor 4 COP T-Cell Lines; 205-1H3): GLT 631
Non-Canonical Peptide Non-Reactivity (Donor 4 COP T-Cell Lines; 205-1H5): GLT 631
reactivity to non-canonical GA peptides (Donor 4 COP T-Cell Lines; 205-1H7, after seven stimulations, 0, 1, 10, 30 μg/mL): reactivity
Non-Canonical Peptide Reactivity (Donor 4 COP T-Cell Lines; 205-1H7, at least one proliferation value >=2 times no antigen control): GLT 631
Non-Canonical Peptide Non-Reactivity (Donor 4 COP T-Cell Lines; 205-1H11): GLT 631
Reactive T-Cell Line (Donor 4 COP T-Cell Lines; Donor 4 COP lines, at least a 50% increase in proliferation relative to a control after stimulation with the non-canonical GA peptide): 205-1H7 (Donor 4)
Nonreactive T-Cell Line (Donor 4 COP T-Cell Lines; Donor 4 COP lines, stimulation with the non-canonical GA peptide): 205-1B4 (Donor 4) and 205-1C4 (Donor 4) and 205-1F4 (Donor 4) and 205-1H3 (Donor 4) and 205-1H5 (Donor 4) and 205-1H11 (Donor 4)
Reactivity (proliferation), Mean (Donor 4 COP T-Cell Lines; T-cell line 205-1B4, 1 μg/mL antigen, No Antigen 830): 912 RLU
Reactivity (proliferation), Mean (Donor 4 COP T-Cell Lines; T-cell line 205-1B4, 3 μg/mL antigen, No Antigen 830): 1059 RLU
Reactivity (proliferation), Mean (Donor 4 COP T-Cell Lines; T-cell line 205-1B4, 10 μg/mL antigen, No Antigen 830): 1387 RLU
Reactivity (proliferation), Mean (Donor 4 COP T-Cell Lines; T-cell line 205-1B4, 30 μg/mL antigen, No Antigen 830): 1389 RLU
Reactivity (proliferation), Mean (Donor 4 COP T-Cell Lines; T-cell line 205-1C4, 1 μg/mL antigen, No Antigen 4464): 4559 RLU
Reactivity (proliferation), Mean (Donor 4 COP T-Cell Lines; T-cell line 205-1C4, 3 μg/mL antigen, No Antigen 4464): 4934 RLU
Reactivity (proliferation), Mean (Donor 4 COP T-Cell Lines; T-cell line 205-1C4, 10 μg/mL antigen, No Antigen 4464): 5616 RLU
Reactivity (proliferation), Mean (Donor 4 COP T-Cell Lines; T-cell line 205-1C4, 30 μg/mL antigen, No Antigen 4464): 5782 RLU
Proliferation (luminescent ATP assay), Mean (Donor 4 COP T-Cell Lines; 1 μg/mL antigen): 1938
Proliferation (luminescent ATP assay), Mean (Donor 4 COP T-Cell Lines; 3 μg/mL antigen): 1863
Proliferation (luminescent ATP assay), Mean (Donor 4 COP T-Cell Lines; 10 μg/mL antigen): 2504
Reactivity (proliferation), Mean (Donor 4 COP T-Cell Lines; T-cell line 205-1H5, 1 μg/mL antigen, No Antigen 749): 710 RLU
Reactivity (proliferation), Mean (Donor 4 COP T-Cell Lines; T-cell line 205-1H5, 3 μg/mL antigen, No Antigen 749): 885 RLU
Reactivity (proliferation), Mean (Donor 4 COP T-Cell Lines; T-cell line 205-1H5, 10 μg/mL antigen, No Antigen 749): 1153 RLU
Reactivity (proliferation), Mean (Donor 4 COP T-Cell Lines; T-cell line 205-1H5, 30 μg/mL antigen, No Antigen 749): 1294 RLU
